Results: patent US10040781B2, “Tank-binding kinase inhibitor compounds” (Gilead Sciences, Inc., priority 2014, dated 2018)

Experiments:
hJAK2 = hJAK2 (Homo sapiens (Human), UniProt O60674); assay: hJAK2 LANCE TR-FRET enzymatic assay; assay type: biochemical; conditions: read-out: JAK2 IC50
IKKε = IKKε (Homo sapiens (Human), UniProt Q14164); assay: IKKε TR-FRET enzymatic assay; assay type: biochemical; conditions: TR-FRET, 2×Km ATP; geometric mean of minimum four determinations; read-out: IKKe IC50
Chain of IKKε (Q14164 whole entry): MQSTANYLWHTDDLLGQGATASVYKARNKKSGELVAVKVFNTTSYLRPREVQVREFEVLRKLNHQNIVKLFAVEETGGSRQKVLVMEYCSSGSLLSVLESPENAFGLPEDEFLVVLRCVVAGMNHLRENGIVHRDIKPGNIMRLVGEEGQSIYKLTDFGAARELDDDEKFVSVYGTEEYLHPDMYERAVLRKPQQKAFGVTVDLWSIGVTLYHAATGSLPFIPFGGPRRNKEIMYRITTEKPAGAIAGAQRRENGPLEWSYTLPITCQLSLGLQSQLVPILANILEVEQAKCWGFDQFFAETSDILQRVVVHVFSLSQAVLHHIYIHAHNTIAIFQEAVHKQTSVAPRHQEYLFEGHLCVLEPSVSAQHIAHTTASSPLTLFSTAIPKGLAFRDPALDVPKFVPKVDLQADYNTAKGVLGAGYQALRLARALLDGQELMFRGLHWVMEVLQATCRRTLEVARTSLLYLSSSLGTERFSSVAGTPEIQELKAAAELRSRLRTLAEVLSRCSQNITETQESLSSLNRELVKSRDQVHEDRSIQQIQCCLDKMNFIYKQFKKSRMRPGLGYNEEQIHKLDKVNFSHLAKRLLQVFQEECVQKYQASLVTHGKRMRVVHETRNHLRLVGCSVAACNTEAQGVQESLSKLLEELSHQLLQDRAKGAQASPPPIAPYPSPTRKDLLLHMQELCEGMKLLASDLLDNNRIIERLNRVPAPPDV

TBK1 = TBK1 (Homo sapiens (Human), UniProt Q9UHD2); assay: TBK1 TR-FRET enzymatic assay;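 note: phosphorylation of a biotinylated Ser/Thr peptide by purified full-length recombinant TBK1, read by TR-FRET after 240 min at 25 °C, IC50 is the geometric mean of at least four runs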
Chain of TBK1 (Q9UHD2 whole entry): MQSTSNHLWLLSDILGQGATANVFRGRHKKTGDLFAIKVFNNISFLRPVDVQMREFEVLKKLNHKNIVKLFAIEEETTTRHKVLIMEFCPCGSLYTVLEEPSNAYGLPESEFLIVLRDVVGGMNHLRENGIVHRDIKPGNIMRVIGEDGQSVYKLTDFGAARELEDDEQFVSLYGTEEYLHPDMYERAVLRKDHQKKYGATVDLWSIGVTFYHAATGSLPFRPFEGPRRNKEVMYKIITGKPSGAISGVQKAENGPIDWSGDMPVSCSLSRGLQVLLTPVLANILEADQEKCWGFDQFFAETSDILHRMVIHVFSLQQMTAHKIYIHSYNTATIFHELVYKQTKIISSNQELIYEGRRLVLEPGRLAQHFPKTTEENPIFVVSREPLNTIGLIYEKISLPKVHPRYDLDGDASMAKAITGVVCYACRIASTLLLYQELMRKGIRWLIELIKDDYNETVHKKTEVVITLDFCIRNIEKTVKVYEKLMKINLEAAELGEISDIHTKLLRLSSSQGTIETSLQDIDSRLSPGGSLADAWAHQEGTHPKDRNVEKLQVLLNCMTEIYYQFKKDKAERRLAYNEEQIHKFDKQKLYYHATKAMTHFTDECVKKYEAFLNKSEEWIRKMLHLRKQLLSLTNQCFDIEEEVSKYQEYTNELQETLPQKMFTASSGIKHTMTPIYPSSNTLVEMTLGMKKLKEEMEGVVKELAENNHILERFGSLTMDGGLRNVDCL

Chain of hJAK2 (O60674 whole entry): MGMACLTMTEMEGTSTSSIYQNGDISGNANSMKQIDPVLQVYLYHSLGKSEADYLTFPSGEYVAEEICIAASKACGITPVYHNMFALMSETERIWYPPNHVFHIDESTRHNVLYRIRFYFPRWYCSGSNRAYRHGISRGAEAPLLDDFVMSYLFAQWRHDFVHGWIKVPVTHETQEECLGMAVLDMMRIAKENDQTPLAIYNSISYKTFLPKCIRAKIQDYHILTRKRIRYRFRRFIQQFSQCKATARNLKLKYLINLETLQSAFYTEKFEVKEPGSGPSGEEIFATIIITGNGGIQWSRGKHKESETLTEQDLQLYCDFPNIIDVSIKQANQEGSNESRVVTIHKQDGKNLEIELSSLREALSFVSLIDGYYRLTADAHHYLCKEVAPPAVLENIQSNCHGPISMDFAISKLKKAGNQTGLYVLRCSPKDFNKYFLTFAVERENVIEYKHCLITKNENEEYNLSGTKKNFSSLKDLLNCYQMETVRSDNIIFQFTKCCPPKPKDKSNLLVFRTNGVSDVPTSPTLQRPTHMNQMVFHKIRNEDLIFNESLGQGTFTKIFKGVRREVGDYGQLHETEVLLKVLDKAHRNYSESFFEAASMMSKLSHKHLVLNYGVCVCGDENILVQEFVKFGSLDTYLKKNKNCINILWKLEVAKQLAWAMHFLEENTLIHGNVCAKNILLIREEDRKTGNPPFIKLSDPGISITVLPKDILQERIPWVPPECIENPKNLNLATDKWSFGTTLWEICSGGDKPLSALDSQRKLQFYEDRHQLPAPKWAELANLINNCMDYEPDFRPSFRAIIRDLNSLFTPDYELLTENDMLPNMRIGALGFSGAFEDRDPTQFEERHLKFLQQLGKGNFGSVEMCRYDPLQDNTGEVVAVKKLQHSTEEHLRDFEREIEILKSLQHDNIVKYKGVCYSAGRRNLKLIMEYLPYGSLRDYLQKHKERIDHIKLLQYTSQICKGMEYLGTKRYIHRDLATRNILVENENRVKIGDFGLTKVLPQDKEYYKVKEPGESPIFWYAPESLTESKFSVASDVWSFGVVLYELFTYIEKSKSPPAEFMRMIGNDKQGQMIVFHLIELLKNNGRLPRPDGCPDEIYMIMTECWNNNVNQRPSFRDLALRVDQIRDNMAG

Compound | IC50 (hJAK2) [nM] | IC50 (IKKε) [nM] | IC50 (TBK1) [nM]
NC(=O)c1cc(-c2ncnc(Nc3ccc(N4CCN(C5COC5)CC4)cc3)n2)ccc1OC1CNC(=O)C(F)(F)C1 (stereo not drawn) [Example 447, 2-((5,5-difluoro-6-oxopiperidin-3-yl)oxy)-5-(4-((4-(4-(oxetan-3-yl)piperazin-1-yl)phenyl)amino)-1,3,5-triazin-2-yl)benzamide] | 15 | 197 | 65
N#Cc1cc(-c2ncnc(Nc3ccc(N4CCN(C5COC5)CC4)cc3)n2)ccc1O[C@H]1CCN(C(=O)c2ccnn2CCO)C[C@H]1F [Example 448, 2-(((3R,4S)-3-fluoro-1-(1-(2-hydroxyethyl)-1H-pyrazole-5-carbonyl)piperidin-4-yl)oxy)-5-(4-((4-(4-(oxetan-3-yl)piperazin-1-yl)phenyl)amino)-1,3,5-triazin-2-yl)benzonitrile] | 213 | 84 | 54
N#Cc1cc(-c2ncnc(Nc3cnn(C(F)F)c3)n2)ccc1O[C@H]1CCNC[C@H]1F [Example 453, 5-(4-((1-(difluoromethyl)-1H-pyrazol-4-yl)amino)-1,3,5-triazin-2-yl)-2-(((3R,4S)-3-fluoropiperidin-4-yl)oxy)benzonitrile] | ≥ 1000 | 577 | 39
CC(C)(C)n1cc(Nc2ncnc(-c3ccc(O[C@H]4CCN(C(=O)CCO)C[C@H]4F)c(C#N)c3)n2)cn1 [Example 458, 5-(4-((1-(tert-butyl)-1H-pyrazol-4-yl)amino)-1,3,5-triazin-2-yl)-2-(((3R,4S)-3-fluoro-1-(3-hydroxypropanoyl)piperidin-4-yl)oxy)benzonitrile] | 223 | 61 | 23
CC(C)(C)n1cc(Nc2ncnc(-c3ccc(O[C@H]4CCN(C(=O)CC#N)C[C@H]4F)c(C#N)c3)n2)cn1 [Example 459, 5-(4-((1-(tert-butyl)-1H-pyrazol-4-yl)amino)-1,3,5-triazin-2-yl)-2-(((3R,4S)-1-(2-cyanoacetyl)-3-fluoropiperidin-4-yl)oxy)benzonitrile] | 108 | 22 | 11
CC(C)[C@H](O)C(=O)N1CC[C@H](Oc2ccc(-c3ncnc(Nc4ccc(N5CCN(C6COC6)CC5)cc4)n3)cc2C#N)[C@H](F)C1 [Example 461, 2-(((3R,4S)-3-fluoro-1-((S)-2-hydroxy-3-methylbutanoyl)piperidin-4-yl)oxy)-5-(4-((4-(4-(oxetan-3-yl)piperazin-1-yl)phenyl)amino)-1,3,5-triazin-2-yl)benzonitrile] | 930 | 63 | 16
CC(C)[C@@H](O)C(=O)N1CC[C@H](Oc2ccc(-c3ncnc(Nc4ccc(N5CCN(C6COC6)CC5)cc4)n3)cc2C#N)[C@H](F)C1 [Example 465, 2-(((3R,4S)-3-fluoro-1-((R)-2-hydroxy-3-methylbutanoyl)piperidin-4-yl)oxy)-5-(4-((4-(4-(oxetan-3-yl)piperazin-1-yl)phenyl)amino)-1,3,5-triazin-2-yl)benzonitrile] | 706 | 364 | 146
C[C@@H](O)CC(=O)N1CC[C@H](Oc2ccc(-c3ncnc(Nc4ccc(N5CCN(C6COC6)CC5)cc4)n3)cc2C#N)[C@H](F)C1 [Example 471, 2-(((3R,4S)-3-fluoro-1-((R)-3-hydroxybutanoyl)piperidin-4-yl)oxy)-5-(4-((4-(4-(oxetan-3-yl)piperazin-1-yl)phenyl)amino)-1,3,5-triazin-2-yl)benzonitrile] | 702 | 14 | 6
N#Cc1cc(-c2ncnc(Nc3ccc(N4CCN(C5COC5)CC4)cc3)n2)ccc1O[C@H]1CCN(C(=O)c2cnco2)C[C@H]1F [Example 473, 2-(((3R,4S)-3-fluoro-1-(oxazole-5-carbonyl)piperidin-4-yl)oxy)-5-(4-((4-(4-(oxetan-3-yl)piperazin-1-yl)phenyl)amino)-1,3,5-triazin-2-yl)benzonitrile] | 771 | 3 | 3

Further lines, results first:

IC50 (hJAK2) [nM] | IC50 (IKKε) [nM] | IC50 (TBK1) [nM] | Compound
443 | 59 | 35 | CC1(C)CN(C(=O)CC#N)C[C@H](F)[C@@H]1Oc1ccc(-c2ncnc(Nc3ccc(N4CCN(C5COC5)CC4)cc3)n2)cc1C#N [Example 449, 2-(((4R,5S)-1-(2-cyanoacetyl)-5-fluoro-3,3-dimethylpiperidin-4-yl)oxy)-5-(4-((4-(4-(oxetan-3-yl)piperazin-1-yl)phenyl)amino)-1,3,5-triazin-2-yl)benzonitrile]
48 | 3 | 3 | CC1(C)CN(C(=O)CC#N)C[C@@H](F)[C@H]1Oc1ccc(-c2ncnc(Nc3ccc(N4CCN(C5COC5)CC4)cc3)n2)cc1C#N [Example 450, 2-(((4S,5R)-1-(2-cyanoacetyl)-5-fluoro-3,3-dimethylpiperidin-4-yl)oxy)-5-(4-((4-(4-(oxetan-3-yl)piperazin-1-yl)phenyl)amino)-1,3,5-triazin-2-yl)benzonitrile]
23 | 1 | 3 | Cc1n[nH]c(C(=O)N2CC[C@H](Oc3ccc(-c4ncnc(Nc5ccc(N6CCN(C7COC7)CC6)cc5)n4)cc3C#N)C(F)(F)C2)n1 [Example 452, (S)-2-((3,3-difluoro-1-(3-methyl-1H-1,2,4-triazole-5-carbonyl)piperidin-4-yl)oxy)-5-(4-((4-(4-(oxetan-3-yl)piperazin-1-yl)phenyl)amino)-1,3,5-triazin-2-yl)benzonitrile]
131 | 1 | 2 | C[C@H](O)C(=O)N1CC[C@H](Oc2ccc(-c3ncnc(Nc4ccc(N5CCO[C@@H](CO)C5)cc4)n3)cc2C#N)C(F)(F)C1 [Example 460, 2-(((S)-3,3-difluoro-1-((S)-2-hydroxypropanoyl)piperidin-4-yl)oxy)-5-(4-((4-((R)-2-(hydroxymethyl)morpholino)phenyl)amino)-1,3,5-triazin-2-yl)benzonitrile]
≥ 1000 | 4 | 3 | C[C@H](O)C(=O)N1CC[C@H](Oc2ccc(-c3ncnc(Nc4ccc(N5CCN(C6COC6)CC5=O)cc4)n3)cc2C#N)[C@H](F)C1 [Example 462, 2-(((3R,4S)-3-fluoro-1-((S)-2-hydroxypropanoyl)piperidin-4-yl)oxy)-5-(4-((4-(4-(oxetan-3-yl)-2-oxopiperazin-1-yl)phenyl)amino)-1,3,5-triazin-2-yl)benzonitrile]
272 | 68 | 30 | Cn1cc(C(O)C(=O)N2CC[C@H](Oc3ccc(-c4ncnc(Nc5ccc(N6CCN(C7COC7)CC6)cc5)n4)cc3C#N)[C@H](F)C2)cn1 (stereo partly drawn) [Example 463, 2-(((3R,4S)-3-fluoro-1-(2-hydroxy-2-(1-methyl-1H-pyrazol-4-yl)acetyl)piperidin-4-yl)oxy)-5-(4-((4-(4-(oxetan-3-yl)piperazin-1-yl)phenyl)amino)-1,3,5-triazin-2-yl)benzonitrile]
171 | 4 | 4 | N#CCC(=O)N1CC[C@H](Oc2ccc(-c3ncnc(Nc4ccc(N5CCO[C@@H](CO)C5)cc4)n3)cc2C#N)[C@H](F)C1 [Example 467, 2-(((3R,4S)-1-(2-cyanoacetyl)-3-fluoropiperidin-4-yl)oxy)-5-(4-((4-((R)-2-(hydroxymethyl)morpholino)phenyl)amino)-1,3,5-triazin-2-yl)benzonitrile]
486 | 2 | 3 | C[C@H](O)C(=O)N1CC[C@H](Oc2ccc(-c3ncnc(Nc4ccc(N5CCN(C6COC6)[C@@H](CO)C5)cc4)n3)cc2C#N)[C@H](F)C1 [Example 468, 2-(((3R,4S)-3-fluoro-1-((S)-2-hydroxypropanoyl)piperidin-4-yl)oxy)-5-(4-((4-((R)-3-(hydroxymethyl)-4-(oxetan-3-yl)piperazin-1-yl)phenyl)amino)-1,3,5-triazin-2-yl)benzonitrile]
197 | 1 | 2 | C[C@H](O)C(=O)N1CC[C@H](Oc2ccc(-c3ncnc(Nc4ccc(N5CCN(C6COC6)[C@@H](CO)C5)cc4)n3)cc2C#N)C(F)(F)C1 [Example 469, 2-(((S)-3,3-difluoro-1-((S)-2-hydroxypropanoyl)piperidin-4-yl)oxy)-5-(4-((4-((R)-3-(hydroxymethyl)-4-(oxetan-3-yl)piperazin-1-yl)phenyl)amino)-1,3,5-triazin-2-yl)benzonitrile]
≥ 1000 | 44 | 12 | C[C@H](O)CC(=O)N1CC[C@H](Oc2ccc(-c3ncnc(Nc4ccc(N5CCN(C6COC6)CC5)cc4)n3)cc2C#N)[C@H](F)C1 [Example 470, 2-(((3R,4S)-3-fluoro-1-((S)-3-hydroxybutanoyl)piperidin-4-yl)oxy)-5-(4-((4-(4-(oxetan-3-yl)piperazin-1-yl)phenyl)amino)-1,3,5-triazin-2-yl)benzonitrile]
971 | 43 | 19 | N#Cc1cc(-c2ncnc(Nc3ccc(N4CCN(C5COC5)CC4)cc3)n2)ccc1O[C@H]1CCN(C(=O)C2(O)COC2)C[C@H]1F [Example 472, 2-(((3R,4S)-3-fluoro-1-(3-hydroxyoxetane-3-carbonyl)piperidin-4-yl)oxy)-5-(4-((4-(4-(oxetan-3-yl)piperazin-1-yl)phenyl)amino)-1,3,5-triazin-2-yl)benzonitrile]
≥ 1000 | 10 | 6 | COc1cc(Nc2ncnc(-c3ccc(O[C@H]4CCN(C(=O)[C@H](C)O)C[C@H]4F)c(C#N)c3)n2)ccn1 [Example 474]
≥ 1000 | 50 | 23 | N#Cc1cc(-c2ncnc(Nc3ccc(N4CCN(C5COC5)CC4)cc3)n2)ccc1O[C@H]1CCN(C(=O)[C@@H]2COCCN2)C[C@H]1F [Example 475, 2-(((3R,4S)-3-fluoro-1-((S)-morpholine-3-carbonyl)piperidin-4-yl)oxy)-5-(4-((4-(4-(oxetan-3-yl)piperazin-1-yl)phenyl)amino)-1,3,5-triazin-2-yl)benzonitrile]
